# From PMC4710522, “A Novel Triazolopyridine-Based Spleen Tyrosine Kinase Inhibitor That Arrests Joint Inflammation” (PLoS ONE, 2016)
# Columns and labels:
# Assay in all cases: SelectScreen kinase assay
# Format in all cases: biochemical
# [1] = target: T1, CLK1_h (Homo sapiens, UniProt P49759); conditions: KM ATP, read-out: % control
# T1 construct: purchased Life Technologies (Invitrogen) SelectScreen, Z'-LYTE / Adapta
# How it was run: (§1)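 A single 3 µM compound concentration was tested against each kinase in Z'-Lyte or Adapta assays, with ATP at KM, 10 or 100 µM as indicated, and activity normalised to DMSO-only wells.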
# [2] = target: T2, CLK3_h (Homo sapiens, UniProt P49761); conditions: KM ATP, read-out: % control
# T2 construct: purchased Life Technologies (Invitrogen) SelectScreen, Z'-LYTE / Adapta
# How it was run: as §1
# [3] = target: T3, CaMKII-beta_h (Homo sapiens, UniProt Q13554); conditions: KM ATP, read-out: % control
# T3 construct: purchased Life Technologies (Invitrogen) SelectScreen, Z'-LYTE / Adapta
# How it was run: as §1
# [4] = target: T4, DYR1A_h (Homo sapiens, UniProt Q13627); conditions: KM ATP, read-out: % control
# T4 construct: purchased Life Technologies (Invitrogen) SelectScreen, Z'-LYTE / Adapta
# How it was run: as §1
# [5] = target: T5, DYRK1B_h (Homo sapiens, UniProt Q9Y463); conditions: KM ATP, read-out: % control
# T5 construct: purchased Life Technologies (Invitrogen) SelectScreen, Z'-LYTE / Adapta
# How it was run: as §1
# [6] = target: T6, EphA2_h (Homo sapiens, UniProt P29317); conditions: KM ATP, read-out: % control
# T6 construct: purchased Life Technologies (Invitrogen) SelectScreen, Z'-LYTE / Adapta
# How it was run: as §1
# [7] = target: T7, EphB3_h (Homo sapiens, UniProt P54753); conditions: KM ATP, read-out: % control
# T7 construct: purchased Life Technologies (Invitrogen) SelectScreen, Z'-LYTE / Adapta
# How it was run: as §1
# [8] = target: T8, FAK_h (Homo sapiens, UniProt Q05397); conditions: KM ATP, read-out: % control
# T8 construct: purchased Life Technologies (Invitrogen) SelectScreen, Z'-LYTE / Adapta
# How it was run: as §1
# [9] = target: T9, FGFR1_h (Homo sapiens, UniProt P11362); conditions: KM ATP, read-out: % control
# T9 construct: purchased Life Technologies (Invitrogen) SelectScreen, Z'-LYTE / Adapta
# How it was run: as §1
# [10] = target: T10, FGFR3_K650E_h (Homo sapiens, UniProt P22607, K650E); conditions: KM ATP, read-out: % control
# T10 construct: purchased Life Technologies (Invitrogen) SelectScreen, Z'-LYTE / Adapta
# How it was run: as §1
# [11] = target: T11, Fer_h (Homo sapiens, UniProt P16591); conditions: KM ATP, read-out: % control
# T11 construct: purchased Life Technologies (Invitrogen) SelectScreen, Z'-LYTE / Adapta
# How it was run: as §1
# [12] = target: T12, Fyn_h (Homo sapiens, UniProt P06241); conditions: KM ATP, read-out: % control
# T12 construct: purchased Life Technologies (Invitrogen) SelectScreen, Z'-LYTE / Adapta
# How it was run: as §1
# [13] = target: T13, GRK4_h (Homo sapiens, UniProt P32298); conditions: KM ATP, read-out: % control
# T13 construct: purchased Life Technologies (Invitrogen) SelectScreen, Z'-LYTE / Adapta
# How it was run: as §1
# [14] = target: T14, GSK3-beta_h (Homo sapiens, UniProt P49841); conditions: KM ATP, read-out: % control
# T14 construct: purchased Life Technologies (Invitrogen) SelectScreen, Z'-LYTE / Adapta
# How it was run: as §1
# [15] = target: T15, IGF-1R_h (Homo sapiens, UniProt P08069); conditions: KM ATP, read-out: % control
# T15 construct: purchased Life Technologies (Invitrogen) SelectScreen, Z'-LYTE / Adapta
# How it was run: as §1
# [16] = target: T16, IR_h (Homo sapiens, UniProt P06213); conditions: KM ATP, read-out: % control
# T16 construct: purchased Life Technologies (Invitrogen) SelectScreen, Z'-LYTE / Adapta
# How it was run: as §1
# [17] = target: JAK2_h (Homo sapiens, UniProt O60674)
# Sequence of JAK2_h (O60674 whole entry): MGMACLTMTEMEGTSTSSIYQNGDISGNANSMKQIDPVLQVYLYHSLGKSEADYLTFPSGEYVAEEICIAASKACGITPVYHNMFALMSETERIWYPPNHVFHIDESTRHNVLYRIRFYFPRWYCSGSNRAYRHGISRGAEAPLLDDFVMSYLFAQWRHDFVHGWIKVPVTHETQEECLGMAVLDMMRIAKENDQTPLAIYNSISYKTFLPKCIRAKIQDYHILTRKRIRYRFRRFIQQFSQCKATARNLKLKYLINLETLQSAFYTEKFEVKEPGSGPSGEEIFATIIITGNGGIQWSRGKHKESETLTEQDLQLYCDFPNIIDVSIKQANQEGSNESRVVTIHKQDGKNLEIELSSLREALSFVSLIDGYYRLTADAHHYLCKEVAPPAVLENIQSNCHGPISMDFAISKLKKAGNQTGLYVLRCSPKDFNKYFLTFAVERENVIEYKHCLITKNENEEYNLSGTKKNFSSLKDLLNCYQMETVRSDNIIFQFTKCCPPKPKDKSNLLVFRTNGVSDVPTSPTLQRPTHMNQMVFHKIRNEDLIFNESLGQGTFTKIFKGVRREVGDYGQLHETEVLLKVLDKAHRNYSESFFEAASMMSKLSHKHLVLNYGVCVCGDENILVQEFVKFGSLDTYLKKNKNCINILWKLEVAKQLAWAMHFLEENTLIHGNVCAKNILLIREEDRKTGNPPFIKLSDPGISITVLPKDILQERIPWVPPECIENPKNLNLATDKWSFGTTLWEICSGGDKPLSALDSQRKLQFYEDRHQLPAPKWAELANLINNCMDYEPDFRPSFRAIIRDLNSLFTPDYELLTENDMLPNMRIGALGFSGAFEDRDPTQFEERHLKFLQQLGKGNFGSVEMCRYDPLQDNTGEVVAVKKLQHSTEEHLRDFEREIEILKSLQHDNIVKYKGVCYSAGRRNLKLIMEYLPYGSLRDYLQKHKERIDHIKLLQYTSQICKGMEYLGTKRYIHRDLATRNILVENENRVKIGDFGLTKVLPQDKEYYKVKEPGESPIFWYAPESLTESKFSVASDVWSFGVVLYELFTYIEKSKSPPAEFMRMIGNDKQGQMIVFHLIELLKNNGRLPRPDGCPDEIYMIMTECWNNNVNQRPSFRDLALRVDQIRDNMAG
# How it was run: as §1
# [18] = target: KDR_h (Homo sapiens, UniProt P35968)
# Sequence of KDR_h (P35968 20-1356): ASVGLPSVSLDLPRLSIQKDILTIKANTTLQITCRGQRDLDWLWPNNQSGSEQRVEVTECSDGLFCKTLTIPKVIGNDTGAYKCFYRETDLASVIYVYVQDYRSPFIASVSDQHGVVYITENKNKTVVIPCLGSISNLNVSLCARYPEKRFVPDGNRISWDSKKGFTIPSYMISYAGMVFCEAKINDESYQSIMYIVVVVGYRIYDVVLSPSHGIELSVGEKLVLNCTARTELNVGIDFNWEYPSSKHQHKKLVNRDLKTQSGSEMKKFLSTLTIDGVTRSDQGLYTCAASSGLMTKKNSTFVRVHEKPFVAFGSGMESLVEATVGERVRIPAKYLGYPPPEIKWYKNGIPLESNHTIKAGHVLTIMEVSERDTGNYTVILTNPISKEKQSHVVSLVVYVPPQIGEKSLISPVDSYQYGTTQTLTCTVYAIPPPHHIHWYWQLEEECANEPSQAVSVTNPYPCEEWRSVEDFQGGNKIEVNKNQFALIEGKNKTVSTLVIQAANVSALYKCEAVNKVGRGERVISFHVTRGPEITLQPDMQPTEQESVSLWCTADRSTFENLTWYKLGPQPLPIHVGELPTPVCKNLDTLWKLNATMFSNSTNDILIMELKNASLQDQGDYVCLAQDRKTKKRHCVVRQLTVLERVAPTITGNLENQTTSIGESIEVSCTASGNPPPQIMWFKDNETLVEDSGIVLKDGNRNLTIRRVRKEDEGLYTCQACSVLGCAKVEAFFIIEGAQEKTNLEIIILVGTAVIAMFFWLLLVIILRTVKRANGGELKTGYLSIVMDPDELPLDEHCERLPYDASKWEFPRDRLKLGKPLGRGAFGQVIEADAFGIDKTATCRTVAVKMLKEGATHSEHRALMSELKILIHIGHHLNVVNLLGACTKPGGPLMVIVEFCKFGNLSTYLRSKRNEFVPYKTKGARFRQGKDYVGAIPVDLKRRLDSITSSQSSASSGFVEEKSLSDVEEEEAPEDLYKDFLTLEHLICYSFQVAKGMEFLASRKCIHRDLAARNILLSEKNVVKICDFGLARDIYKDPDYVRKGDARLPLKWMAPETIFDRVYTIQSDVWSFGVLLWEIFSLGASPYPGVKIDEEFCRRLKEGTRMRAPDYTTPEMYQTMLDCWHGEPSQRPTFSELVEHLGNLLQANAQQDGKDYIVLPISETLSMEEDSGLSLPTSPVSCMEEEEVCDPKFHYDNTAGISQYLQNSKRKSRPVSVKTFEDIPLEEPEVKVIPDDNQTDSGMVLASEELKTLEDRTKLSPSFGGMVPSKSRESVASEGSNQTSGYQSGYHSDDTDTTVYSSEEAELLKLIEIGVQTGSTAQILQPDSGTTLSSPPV
# How it was run: as §1
# [19] = target: T17, Khs_1 (Homo sapiens, UniProt Q9Y4K4); conditions: KM ATP, read-out: % control
# T17 construct: purchased Life Technologies (Invitrogen) SelectScreen, Z'-LYTE / Adapta
# How it was run: as §1
# [20] = target: T18, MARK2_h (Homo sapiens, UniProt Q7KZI7); conditions: KM ATP, read-out: % control
# T18 construct: purchased Life Technologies (Invitrogen) SelectScreen, Z'-LYTE / Adapta
# How it was run: as §1
# [21] = target: T19, MARK4_h (Homo sapiens, UniProt Q96L34); conditions: KM ATP, read-out: % control
# T19 construct: purchased Life Technologies (Invitrogen) SelectScreen, Z'-LYTE / Adapta
# How it was run: as §1
# [22] = target: T20, MEK1_h (Homo sapiens, UniProt Q02750); conditions: 100 µM ATP, read-out: % control
# T20 construct: purchased Life Technologies (Invitrogen) SelectScreen, Z'-LYTE / Adapta
# How it was run: as §1
# [23] = target: T21, MELK_h (Homo sapiens, UniProt Q14680); conditions: KM ATP, read-out: % control
# T21 construct: purchased Life Technologies (Invitrogen) SelectScreen, Z'-LYTE / Adapta
# How it was run: as §1
# [24] = target: T22, MYLK2_h (Homo sapiens, UniProt Q9H1R3); conditions: KM ATP, read-out: % control
# T22 construct: purchased Life Technologies (Invitrogen) SelectScreen, Z'-LYTE / Adapta
# T22 sequence (Q9H1R3 whole entry): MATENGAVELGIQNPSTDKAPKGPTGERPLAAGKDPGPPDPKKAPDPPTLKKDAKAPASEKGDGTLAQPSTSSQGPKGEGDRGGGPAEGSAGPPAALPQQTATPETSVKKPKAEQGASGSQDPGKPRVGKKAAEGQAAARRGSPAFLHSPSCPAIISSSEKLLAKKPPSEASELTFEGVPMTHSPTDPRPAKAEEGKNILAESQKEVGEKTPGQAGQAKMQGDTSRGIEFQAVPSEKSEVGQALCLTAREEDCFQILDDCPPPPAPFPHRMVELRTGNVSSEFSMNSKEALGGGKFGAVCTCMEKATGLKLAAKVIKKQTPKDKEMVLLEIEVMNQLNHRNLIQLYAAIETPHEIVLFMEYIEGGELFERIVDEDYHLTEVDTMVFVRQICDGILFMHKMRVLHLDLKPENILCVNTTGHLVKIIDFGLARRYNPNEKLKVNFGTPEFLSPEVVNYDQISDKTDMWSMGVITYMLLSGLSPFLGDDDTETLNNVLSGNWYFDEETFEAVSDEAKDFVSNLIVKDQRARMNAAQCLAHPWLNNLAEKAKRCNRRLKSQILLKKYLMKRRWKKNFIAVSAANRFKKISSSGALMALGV
# How it was run: as §1
# [25] = target: T23, Mer_h (Homo sapiens, UniProt Q12866); conditions: KM ATP, read-out: % control
# T23 construct: purchased Life Technologies (Invitrogen) SelectScreen, Z'-LYTE / Adapta
# How it was run: as §1
# [26] = target: T24, PAK2_h (Homo sapiens, UniProt Q13177); conditions: KM ATP, read-out: % control
# T24 construct: purchased Life Technologies (Invitrogen) SelectScreen, Z'-LYTE / Adapta
# How it was run: as §1
# [27] = target: T25, PAK3_h (Homo sapiens, UniProt O75914); conditions: KM ATP, read-out: % control
# T25 construct: purchased Life Technologies (Invitrogen) SelectScreen, Z'-LYTE / Adapta
# How it was run: as §1
# [28] = target: Ret_h (Homo sapiens, UniProt P07949)
# Sequence of Ret_h (P07949 29-1114): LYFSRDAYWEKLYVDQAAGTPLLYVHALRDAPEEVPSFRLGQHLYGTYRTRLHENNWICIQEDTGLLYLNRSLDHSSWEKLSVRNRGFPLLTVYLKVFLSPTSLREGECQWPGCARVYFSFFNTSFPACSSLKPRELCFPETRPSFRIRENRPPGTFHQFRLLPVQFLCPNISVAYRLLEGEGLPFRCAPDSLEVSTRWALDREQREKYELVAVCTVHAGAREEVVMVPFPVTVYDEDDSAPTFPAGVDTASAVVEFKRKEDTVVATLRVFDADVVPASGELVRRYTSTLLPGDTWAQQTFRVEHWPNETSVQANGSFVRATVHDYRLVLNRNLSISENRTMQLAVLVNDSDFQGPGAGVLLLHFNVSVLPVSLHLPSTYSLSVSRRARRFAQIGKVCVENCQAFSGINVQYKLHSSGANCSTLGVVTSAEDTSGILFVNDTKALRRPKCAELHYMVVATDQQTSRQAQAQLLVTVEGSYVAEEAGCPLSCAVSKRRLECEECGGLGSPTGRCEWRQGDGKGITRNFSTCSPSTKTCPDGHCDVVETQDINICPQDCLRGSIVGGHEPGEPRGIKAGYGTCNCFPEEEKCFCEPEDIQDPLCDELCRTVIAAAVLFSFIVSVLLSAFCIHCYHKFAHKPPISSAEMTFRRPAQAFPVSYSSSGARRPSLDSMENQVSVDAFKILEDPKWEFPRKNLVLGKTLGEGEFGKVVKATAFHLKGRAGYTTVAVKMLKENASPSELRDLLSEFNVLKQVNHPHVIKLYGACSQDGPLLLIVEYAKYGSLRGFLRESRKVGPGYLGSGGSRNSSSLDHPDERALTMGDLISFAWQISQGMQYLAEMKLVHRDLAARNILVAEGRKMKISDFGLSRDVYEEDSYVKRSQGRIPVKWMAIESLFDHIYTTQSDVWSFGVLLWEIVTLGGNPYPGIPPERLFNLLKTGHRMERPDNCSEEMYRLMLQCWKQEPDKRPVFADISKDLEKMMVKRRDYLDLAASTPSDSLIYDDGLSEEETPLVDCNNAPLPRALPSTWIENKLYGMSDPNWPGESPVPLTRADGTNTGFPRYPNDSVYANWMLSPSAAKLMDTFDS
# How it was run: as §1
# [29] = target: T26, TBK1_h (Homo sapiens, UniProt Q9UHD2); conditions: KM ATP, read-out: % control
# T26 construct: purchased Life Technologies (Invitrogen) SelectScreen, Z'-LYTE / Adapta
# How it was run: as §1
# [30] = target: T27, Tie2_h (Homo sapiens, UniProt Q02763); conditions: KM ATP, read-out: % control
# T27 construct: purchased Life Technologies (Invitrogen) SelectScreen, Z'-LYTE / Adapta
# How it was run: as §1
# [31] = target: T28, TrkA_h (Homo sapiens, UniProt P04629); conditions: KM ATP, read-out: % control
# T28 construct: purchased Life Technologies (Invitrogen) SelectScreen, Z'-LYTE / Adapta
# How it was run: as §1
# [32] = target: cKit_h (Homo sapiens, UniProt P10721)
# Sequence of cKit_h (P10721 26-976): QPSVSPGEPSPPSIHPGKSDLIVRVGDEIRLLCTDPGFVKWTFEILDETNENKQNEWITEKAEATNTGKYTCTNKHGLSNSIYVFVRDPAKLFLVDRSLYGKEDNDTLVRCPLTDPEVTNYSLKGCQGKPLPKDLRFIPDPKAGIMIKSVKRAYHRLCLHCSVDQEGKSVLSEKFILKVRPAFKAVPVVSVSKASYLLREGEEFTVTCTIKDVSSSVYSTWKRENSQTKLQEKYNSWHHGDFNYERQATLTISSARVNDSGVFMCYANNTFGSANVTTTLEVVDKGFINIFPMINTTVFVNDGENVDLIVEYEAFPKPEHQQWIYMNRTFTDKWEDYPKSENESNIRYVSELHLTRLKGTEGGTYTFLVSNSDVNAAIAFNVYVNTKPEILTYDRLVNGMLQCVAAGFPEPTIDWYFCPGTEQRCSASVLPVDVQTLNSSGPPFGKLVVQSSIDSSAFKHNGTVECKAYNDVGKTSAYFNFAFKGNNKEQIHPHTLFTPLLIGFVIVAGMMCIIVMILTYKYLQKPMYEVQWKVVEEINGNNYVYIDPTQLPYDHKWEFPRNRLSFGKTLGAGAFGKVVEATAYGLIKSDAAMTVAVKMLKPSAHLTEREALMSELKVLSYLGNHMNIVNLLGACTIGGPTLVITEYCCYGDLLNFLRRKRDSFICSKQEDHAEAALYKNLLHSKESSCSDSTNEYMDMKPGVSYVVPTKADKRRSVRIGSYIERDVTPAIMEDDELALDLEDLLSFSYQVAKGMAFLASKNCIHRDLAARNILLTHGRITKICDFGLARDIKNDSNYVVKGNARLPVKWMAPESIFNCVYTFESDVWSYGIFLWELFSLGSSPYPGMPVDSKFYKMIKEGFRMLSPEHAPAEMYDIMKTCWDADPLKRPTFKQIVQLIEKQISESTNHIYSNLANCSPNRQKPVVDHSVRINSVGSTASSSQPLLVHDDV
# How it was run: as §1
# [33] = target: T29, p38-gamma_h (Homo sapiens, UniProt P53778); conditions: KM ATP, read-out: % control
# T29 construct: purchased Life Technologies (Invitrogen) SelectScreen, Z'-LYTE / Adapta
# How it was run: as §1
# [34] = target: T30, p70S6K_h (Homo sapiens, UniProt P23443); conditions: KM ATP, read-out: % control
# T30 construct: purchased Life Technologies (Invitrogen) SelectScreen, Z'-LYTE / Adapta
# How it was run: as §1
# [35] = 3 µM, KM ATP, read-out: % control
# [36] = 10-point dose-response, commercial vendor
compound,measurement,setting,value
"c1cc(CC2CCOCC2)n2nc(Nc3ccc4c(NC5CCOCC5)n[nH]c4c3)nc2c1 [CC-509, [3-(2H-3,4,5,6-tetrahydropyran-4-ylamino)(1H-indazol-6-yl)][5-(2H-3,4,5,6-tetrahydropyran-4-ylmethyl)(2H-1,2,4-triazolo[1,5-a]pyridin-2-yl)]amine]",remaining activity at 3 µM,[1],82%
same,remaining activity at 3 µM,[2],81%
same,remaining activity at 3 µM,[3],104%
same,remaining activity at 3 µM,[4],99%
same,remaining activity at 3 µM,[5],95%
same,remaining activity at 3 µM,[6],82%
same,remaining activity at 3 µM,[7],42%
same,remaining activity at 3 µM,[8],43%
same,remaining activity at 3 µM,[9],69%
same,remaining activity at 3 µM,[10],54%
same,remaining activity at 3 µM,[11],40%
same,remaining activity at 3 µM,[12],74%
same,remaining activity at 3 µM,[13],82%
same,remaining activity at 3 µM,[14],88%
same,remaining activity at 3 µM,[15],97%
same,remaining activity at 3 µM,[16],91%
same,remaining activity at 3 µM,[17]; [35],4%
same,IC50,[17]; [36],18.9 nM
same,remaining activity at 3 µM,[18]; [35],3%
same,IC50,[18]; [36],185 nM
same,remaining activity at 3 µM,[19],81%
same,remaining activity at 3 µM,[20],55%
same,remaining activity at 3 µM,[21],33%
same,remaining activity at 3 µM,[22],65%
same,remaining activity at 3 µM,[23],10%
same,remaining activity at 3 µM,[24],80%
same,remaining activity at 3 µM,[25],90%
same,remaining activity at 3 µM,[26],85%
same,remaining activity at 3 µM,[27],97%
same,remaining activity at 3 µM,[28]; [35],13%
same,IC50,[28]; [36],397 nM
same,remaining activity at 3 µM,[29],10%
same,remaining activity at 3 µM,[30],87%
same,remaining activity at 3 µM,[31],41%
same,remaining activity at 3 µM,[32]; [35],66%
same,IC50,[32]; [36],11000 nM
same,remaining activity at 3 µM,[33],95%
same,remaining activity at 3 µM,[34],89%
